PubChem BioAssay AID2060901 (Molecular Pharmacology Branch, DTP, NCI, 2025)

System: 422866-222-R5-J1-PDC complex spheroids viability
Assay: Anticancer human tumor 422866-222-R5-J1-PDC patient-derived pancreatic adenocarcinoma cell line growth inhibition [RAS]
Conditions: for IC50: curve of first compound; for viability, T/C: stronger effect = lower value
Procedure, shortened: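 Agents were tested in combination matrices in half-log decrements from a top concentration at or near clinical Cmax (10 microM if undetermined). Targets were multi-cell spheroids of tumour lines plus HUVEC and MSC stromal cells.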
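Further: spheroids exposed to compounds for 7 days.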
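Wherever viability, T/C is given: 100% = DMSO vehicle control viability.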

CC(C)NCC(C(=O)N1CCN(c2ncnc3c2C(C)CC3O)CC1)c1ccc(Cl)cc1 (configuration not stated) + CCn1c(-c2cc(N3CCN(C)CC3)cnc2C(C)OC)c2c3cc(ccc31)-c1csc(n1)CC(NC(=O)C1CC1C)C(=O)N1CCCC(N1)C(=O)OCC(C)(C)C2
IC50 (second compound 0.000949 µM): < 31.6 nM | IC50 (second compound 0.003 µM): < 31.6 nM | IC50 (second compound 0.00949 µM): < 31.6 nM | IC50 (second compound 0.03 µM): < 31.6 nM | IC50 (second compound 0.0949 µM): < 31.6 nM | IC50 (second compound 0.3 µM): < 31.6 nM | viability, T/C (second compound 0.000949 µM, first compound 0.0316 µM): 29.7% | viability, T/C (second compound 0.000949 µM, first compound 0.1 µM): 25.9% | viability, T/C (second compound 0.000949 µM, first compound 0.316 µM): 20.5% | viability, T/C (second compound 0.000949 µM, first compound 1 µM): 21.1% | viability, T/C (second compound 0.000949 µM, first compound 3.16 µM): 27.7% | viability, T/C (second compound 0.000949 µM, first compound 10 µM): 33.9% | viability, T/C (second compound 0.003 µM, first compound 0.0316 µM): 25.2% | viability, T/C (second compound 0.003 µM, first compound 0.1 µM): 20.6% | viability, T/C (second compound 0.003 µM, first compound 0.316 µM): 17.4% | viability, T/C (second compound 0.003 µM, first compound 1 µM): 13.4% | viability, T/C (second compound 0.003 µM, first compound 3.16 µM): 17.8% | viability, T/C (second compound 0.003 µM, first compound 10 µM): 17.7% | viability, T/C (second compound 0.00949 µM, first compound 0.0316 µM): 20.4% | viability, T/C (second compound 0.00949 µM, first compound 0.1 µM): 15.2% | viability, T/C (second compound 0.00949 µM, first compound 0.316 µM): 14.7% | viability, T/C (second compound 0.00949 µM, first compound 1 µM): 11.6% | viability, T/C (second compound 0.00949 µM, first compound 3.16 µM): 14.1% | viability, T/C (second compound 0.00949 µM, first compound 10 µM): 15.7% | viability, T/C (second compound 0.03 µM, first compound 0.0316 µM): 20.1% | viability, T/C (second compound 0.03 µM, first compound 0.1 µM): 15.8% | viability, T/C (second compound 0.03 µM, first compound 0.316 µM): 14.9% | viability, T/C (second compound 0.03 µM, first compound 1 µM): 11.9% | viability, T/C (second compound 0.03 µM, first compound 3.16 µM): 11.9% | viability, T/C (second compound 0.03 µM, first compound 10 µM): 13.8% | viability, T/C (second compound 0.0949 µM, first compound 0.0316 µM): 16.5% | viability, T/C (second compound 0.0949 µM, first compound 0.1 µM): 17.4% | viability, T/C (second compound 0.0949 µM, first compound 0.316 µM): 13.1% | viability, T/C (second compound 0.0949 µM, first compound 1 µM): 11.7% | viability, T/C (second compound 0.0949 µM, first compound 3.16 µM): 12.4% | viability, T/C (second compound 0.0949 µM, first compound 10 µM): 13.8% | viability, T/C (second compound 0.3 µM, first compound 0.0316 µM): 18.8% | viability, T/C (second compound 0.3 µM, first compound 0.1 µM): 19.6% | viability, T/C (second compound 0.3 µM, first compound 0.316 µM): 14.2% | viability, T/C (second compound 0.3 µM, first compound 1 µM): 11.5% | viability, T/C (second compound 0.3 µM, first compound 3.16 µM): 12.9% | viability, T/C (second compound 0.3 µM, first compound 10 µM): 13.8%
